Data taken from patent US8618154B2, “LXR modulators” (Bristol-Myers Squibb Company, priority 2009, dated 2013).
Read-outs that look alike come from different tables or passages of the source.

Tested on: ABCA1 gene expression
Assay: Human whole blood assay (hWBA), ABCA1 mRNA induction
Assay type: cell-based
Details: for Emax: read-out: hWBA hABCA1 L30 Max P (%)
Experimental: Human whole blood was collected in EDTA containing tubes and 0.5 mL aliquots were immediately mixed in a 96 well block with the appropriate serial dilution of test compound, in 0.5% DMSO. Compounds were incubated with blood at 37° C. with constant rocking for 4 hours. After incubation, cells were lysed in ABI Nucleic Acid Purification Lysis Solution (Applied Biosystems catalog #4305895) and frozen at −80° C. Following cell lysis, total RNA was purified using an ABI 6100 RNA prep station according to the protocol provided by the manufacturer. cDNAs were synthesized, and mRNAs were quantitated using SYBR-Green Quantitative PCR (Q-PCR) on an ABI Prism 7900HT Sequence Detection System and reagents from Quanta Bioscience Inc (Quanta Bioscience catalog #95047 and 95055).
The quantity of each mRNA was determined by the ΔΔCT method (Michael W. Pfaffl. A new mathematical model for relative quantification in real-time RT-PCR. Nucleic Acids Research, 2001, Vol. 29, No. 9 e45) and normalized to the quantity of two control mRNAs, i.e. ribosomal protein L-30 (L-30) and beta-2-microglobulin (B2M). The induction of ABCA1 and ABCG1 by test compound was graphed as a percent of the reference compound, 2-(4-(5-(5-cyano-1-(2,4-difluorobenzyl)-6-oxo-4-(trifluoromethyl)-1,6-dihydropyridin-2-yl)thiophen-2-yl)-3-methylphenyl)acetic acid, and potency (EC50) and activity (% MAX) were calculated by fitting a sigmoidal response curve as a function of log transformed compound concentration using XLFit software according to the equation y=A+((B−A)/(1+((C/x)^D))).

[1] = Homo sapiens, 4 h, percent of reference pan agonist (maximal activity defined as 100%)
[2] = human whole blood, 4 hours, ABCA1 mRNA normalized to L30, read-out: hWBA hABCA1 L30 EC50

Row | Structure (SMILES) | Emax [1] [%] | EC50 [2] [nM] | EC50 (Homo sapiens, 4 h, read-out: hWBA hABCA1 L30 EC50 (nM)) [nM] | Emax (Homo sapiens, 4 h) [%]
1 | CC(C)(O)c1cn(-c2ccc(-c3cc(F)c(CO)c(S(C)(=O)=O)c3)cc2)c(C(C)(C)c2ccccc2F)n1 [Example 1, 2-(1-(3′-fluoro-4′-(hydroxymethyl)-5′-(methylsulfonyl)biphenyl-4-yl)-2-(2-(2-fluorophenyl)propan-2-yl)-1H-imidazol-4-yl)propan-2-ol] | 28 | < 100 | – | –
2 | Cc1cc(-c2cc(F)c(CO)c(S(C)(=O)=O)c2)ccc1-n1cc(C(C)(C)O)nc1C(C)(C)c1c(F)cccc1Cl [Example 2, 2-(2-(2-(2-chloro-6-fluorophenyl)propan-2-yl)-1-(3′-fluoro-4′-(hydroxymethyl)-3-methyl-5′-(methylsulfonyl)biphenyl-4-yl)-1H-imidazol-4-yl)propan-2-ol] | 18 | < 100 | – | –
3 | CC(C)(O)c1cn(-c2ccc(-c3cc(F)c(CO)c(S(C)(=O)=O)c3)cc2Cl)c(C(C)(C)c2c(Cl)cccc2Cl)n1 [Example 3, 2-(1-(3-chloro-3′-fluoro-4′-(hydroxymethyl)-5′-(methylsulfonyl)biphenyl-4-yl)-2-(2-(2,6-dichlorophenyl)propan-2-yl)-1H-imidazol-4-yl)propan-2-ol] | 16 | < 100 | – | –
4 | CC(C)(O)c1cn(-c2ccc(-c3cc(F)c(CO)c(S(C)(=O)=O)c3)cc2)c(C(C)(C)c2c(Cl)cccc2Cl)n1 [Example 5, 2-(2-(2-(2,6-dichlorophenyl)propan-2-yl)-1-(3′-fluoro-4′-(hydroxymethyl)-5′-(methylsulfonyl)biphenyl-4-yl)-1H-imidazol-4-yl)propan-2-ol] | 43 | < 100 | – | –
5 | CC(C)(O)c1cn(-c2ccc(-c3cc(F)c(CO)c(S(C)(=O)=O)c3)cc2F)c(C(C)(C)c2ccccc2Cl)n1 [Example 6, 2-(2-(2-(2-Chloro-phenyl)propan-2-yl)-1-(3,3′-difluoro-4′-hydroxymethyl-5′-(methylsulfonyl)biphenyl-4-yl)-1H-imidazol-4-yl)-propan-2-ol] | 35 | < 100 | – | –
6 | CC(C)(O)c1cn(-c2ccc(-c3cc(F)c(CO)c(S(C)(=O)=O)c3)cc2F)c(C(C)(C)c2c(F)cccc2Cl)n1 [Example 7, 2-(2-(2-(2-chloro-6-fluorophenyl)propan-2-yl)-1-(3,3′-difluoro-4′-(hydroxymethyl)-5′-(methylsulfonyl)biphenyl-4-yl)-1H-imidazol-4-yl)propan-2-ol] | 33 | < 100 | – | –
7 | CC(C)(O)c1cn(-c2ccc(-c3cc(F)c(CO)c(S(C)(=O)=O)c3)cc2F)c(C(C)(C)c2ccccc2F)n1 [Example 8, 2-{1-(3,3′-Difluoro-4′-hydroxymethyl-5′-methanesulfonyl-biphenyl-4-yl)-2-[2-(2-fluorophenyl)propan-2-yl]-1H-imidazol-4-yl}-propan-2-ol] | 23 | < 100 | – | –
8 | CC(C)(O)c1cn(-c2ccc(-c3cc(F)c(CO)c(S(C)(=O)=O)c3)cc2F)c(Cc2ccc(Cl)cc2Cl)n1 [Example 11, 2-(2-(2,4-dichlorobenzyl)-1-(3,3′-difluoro-4′-(hydroxymethyl)-5′-(methylsulfonyl)biphenyl-4-yl)-1H-imidazol-4-yl)propan-2-ol] | 16 | < 100 | – | –
9 | CC(C)(O)c1cn(-c2ccc(-c3cc(F)c(CO)c(S(C)(=O)=O)c3)cc2F)c(Cc2ccccc2C(F)(F)F)n1 [Example 12, 2-(1-(3,3′-difluoro-4′-(hydroxymethyl)-5′-(methylsulfonyl)biphenyl-4-yl)-2-(2-(trifluoromethyl)benzyl)-1H-imidazol-4-yl)propan-2-ol] | 32 | < 100 | – | –
10 | CC(C)(O)c1cn(-c2ccc(-c3cc(F)c(CO)c(S(C)(=O)=O)c3)cc2Cl)c(Cc2ccc(F)cc2Cl)n1 [Example 13, 2-(1-(3-chloro-3′-fluoro-4′-(hydroxymethyl)-5′-(methylsulfonyl)biphenyl-4-yl)-2-(2-chloro-4-fluorobenzyl)-1H-imidazol-4-yl)propan-2-ol] | 50 | < 100 | – | –
11 | CC(C)(O)c1cn(-c2ccc(-c3cc(F)c(CO)c(S(C)(=O)=O)c3)cc2F)c(Cc2ccc(F)cc2Cl)n1 [Example 14, 2-(2-(2-chloro-4-fluorobenzyl)-1-(3,3′-difluoro-4′-(hydroxymethyl)-5′-(methylsulfonyl)biphenyl-4-yl)-1H-imidazol-4-yl)propan-2-ol] | 24 | < 100 | – | –
12 | CC(C)(O)c1cn(-c2ccc(-c3cc(F)c(CO)c(S(C)(=O)=O)c3)cc2)c(Cc2ccc(Cl)cc2Cl)n1 [Example 15, 2-(2-(2,4-dichlorobenzyl)-1-(3′-fluoro-4′-(hydroxymethyl)-5′-(methylsulfonyl)biphenyl-4-yl)-1H-imidazol-4-yl)propan-2-ol] | 47 | < 100 | – | –
13 | CC(C)(O)c1cn(-c2ccc(-c3cc(F)c(CO)c(S(C)(=O)=O)c3)cc2F)c(Cc2ccccc2F)n1 [Example 16, 2-(1-(3,3′-difluoro-4′-(hydroxymethyl)-5′-(methylsulfonyl)biphenyl-4-yl)-2-(2-fluorobenzyl)-1H-imidazol-4-yl)propan-2-ol] | 41 | < 100 | – | –
14 | Cc1ccccc1Cc1nc(C(C)(C)O)cn1-c1ccc(-c2cc(F)c(CO)c(S(C)(=O)=O)c2)cc1 [Example 17, 2-(1-(3′-fluoro-4′-(hydroxymethyl)-5′-(methylsulfonyl)biphenyl-4-yl)-2-(2-methylbenzyl)-1H-imidazol-4-yl)propan-2-ol] | 20 | < 100 | – | –
15 | CC(C)(O)c1cn(-c2ccc(-c3cc(F)c(CO)c(S(C)(=O)=O)c3)cc2)c(Cc2c(Cl)cccc2Cl)n1 [Example 18, 2-(2-(2,6-dichlorobenzyl)-1-(3′-fluoro-4′-(hydroxymethyl)-5′-(methylsulfonyl)biphenyl-4-yl)-1H-imidazol-4-yl)propan-2-ol] | 51 | < 100 | – | –
16 | CC(C)(O)c1cn(-c2ccc(-c3cc(F)c(CO)c(S(C)(=O)=O)c3)cc2)c(Cc2cc(F)ccc2Cl)n1 [Example 19, 2-[2-(2-Chloro-5-fluoro-benzyl)-1-(3′-fluoro-4′-hydroxymethyl-5′-methanesulfonyl-biphenyl-4-yl)-1H-imidazol-4-yl]-propan-2-ol] | 35 | < 100 | – | –
17 | CC(C)(O)c1cn(-c2ccc(-c3cc(F)c(CO)c(S(C)(=O)=O)c3)cc2F)c(Cc2ccccc2Cl)n1 [Example 20, 2-[2-(2-Chloro-benzyl)-1-(3,3′-difluoro-4′-hydroxymethyl-5′-methanesulfonyl-biphenyl-4-yl)-1H-imidazol-4-yl]-propan-2-ol] | 35 | < 100 | – | –
18 | CC(c1c(Cl)cccc1Cl)c1nc(C(C)(C)O)cn1-c1ccc(-c2cc(F)c(CO)c(S(C)(=O)=O)c2)cc1F (stereo not drawn) [Example 21, 2-{2-[1-(2,6-dichlorophenyl)ethyl]-1-[3,3′-difluoro-4′-(hydroxymethyl)-5′-(methylsulfonyl)biphenyl-4-yl]-1H-imidazol-4-yl}propan-2-ol] | – | – | < 100 | 17
